The values below come from US20040110763A1, “Pyrazolopyridine compound and pharmaceutical use thereof” (priority 2000, published 2004).

The melting point is the temperature, or range, at which the solid turns liquid.

Compound `CCCCNC(=O)COc1ccn2nc(-c3ccccc3)c(-c3ccc(=O)n(C(C)C)n3)c2c1` [Example 65, N-Butyl-2-{[3-(3-oxo-2-isopropyl-2,3-dihydropyridazin-6-yl)-2-phenylpyrazolo[1,5-a]pyridin-5-yl]oxy}acetamide] displayed a melting point of 151 to 152 °C.

`CCn1nc(-c2c(-c3ccc(F)cc3)nn3ccc(OC)cc23)ccc1=O` [Example 131, 5-Methoxy-3-(3-oxo-2-ethyl-2,3-dihydropyridazin-6-yl)-2-(4-fluorophenyl)pyrazolo[1,5-a]pyridine] came in with a melting point of 179 to 180 °C.

Compound `CCOC(=O)COc1ccn2nc(-c3ccccc3)c(-c3ccc(=O)n(C(C)C)n3)c2c1` [Example 38, Ethyl {[3-(3-oxo-2-isopropyl-2,3-dihydropyridazin-6-yl)-2-phenylpyrazolo[1,5-a]pyridin-5-yl]oxy}acetate] registered a melting point of 193 to 194 °C.

Compound `CC(C)n1nc(-c2c(-c3ccccc3)nn3ccc(N4CCN(C(=O)N(C)C)CC4)cc23)ccc1=O` [Example 109, 4-[3-(3-oxo-2-isopropyl-2,3-dihydropyridazin-6-yl)-2-phenylpyrazolo[1,5-a]pyridin-5-yl]-N,N-dimethyl-1-piperazinecarboxamide] came in with a melting point of 160 to 161 °C.

In turn, `CCCn1nc(-c2c(-c3ccccc3)nn3ccc(OC)cc23)ccc1=O` [Example 117, 5-Methoxy-3-(3-oxo-2-propyl-2,3-dihydropyridazin-6-yl)-2-phenylpyrazolo[1,5-a]pyridine] gave a melting point of 174 °C.

In the case of `CC(C)n1nc(-c2c(-c3ccccc3)nn3ccc(Oc4ccncc4)cc23)ccc1=O` [Example 35, 5-(4-Pyridinyloxy)-3-(3-oxo-2-isopropyl-2,3-dihydropyridazin-6-yl)-2-phenylpyrazolo[1,5-a]pyridine], the melting point was in the range of 218.5 to 219.5 °C.

Compound `CC(C)n1nc(-c2c(-c3ccccc3)nn3ccc(N4CCN(C(=O)OC(C)(C)C)CC4)cc23)ccc1=O` [Example 104, tert-Butyl 4-[3-(3-oxo-2-isopropyl-2,3-dihydropyridazin-6-yl)-2-phenylpyrazolo[1,5-a]pyridin-5-yl]-1-piperazinecarboxylate] had a melting point of 163 to 164 °C.

In the case of `CC(C)n1nc(-c2c(-c3ccccc3)nn3ccc(OCC(=O)NC4CCCCC4)cc23)ccc1=O` [Example 63, N-Cyclohexyl-2-{[3-(3-oxo-2-isopropyl-2,3-dihydropyridazin-6-yl)-2-phenylpyrazolo[1,5-a]pyridin-5-yl]oxy}acetamide], the melting point was in the range of 170 to 171.5 °C.

Take `CC(C)n1nc(-c2c(-c3ccccc3)nn3ccc(NC(=O)c4ccccc4)cc23)ccc1=O` [Example 148, 5-Benzoylamino-3-(3-oxo-2-isopropyl-2,3-dihydropyridazin-6-yl)-2-phenylpyrazolo[1,5-a]pyridine]: the melting point was 266 to 267 °C.

For `CC(C)n1nc(-c2c(-c3ccccc3)nn3ccc(N4CCN(c5ccccc5)CC4)cc23)ccc1=O` [Example 99, 5-(4-Phenyl-1-piperazinyl)-3-(3-oxo-2-isopropyl-2,3-dihydropyridazin-6-yl)-2-phenylpyrazolo[1,5-a]pyridine], the melting point was above 240 °C.

In turn, `CCN(CC)CCOc1ccn2nc(-c3ccccc3)c(-c3ccc(=O)n(C(C)C)n3)c2c1` [Example 25, 5-[2-(Diethylamino)ethoxy]-3-(3-oxo-2-isopropyl-2,3-dihydropyridazin-6-yl)-2-phenylpyrazolo[1,5-a]pyridine] gave a melting point of 92.5 to 94.5 °C.

For the compound `CC(=O)Nc1cccc2c(-c3ccc(=O)n(C(C)C)n3)c(-c3ccccc3)nn12` [Example 187, 7-Acetylamino-3-(3-oxo-2-isopropyl-2,3-dihydropyridazin-6-yl)-2-phenylpyrazolo[1,5-a]pyridine], the melting point was in the range of 92 to 96 °C.

In turn, `CC(C)n1nc(-c2c(-c3ccccc3)nn3ccc(N4CCN(S(=O)(=O)c5ccccc5)CC4)cc23)ccc1=O` [Example 111, 5-[4-(Phenylsulfonyl)-1-piperazinyl]-3-(3-oxo-2-isopropyl-2,3-dihydropyridazin-6-yl)-2-phenylpyrazolo[1,5-a]pyridine] came in with a melting point of 219 to 220 °C.

The compound `COc1ccn2nc(-c3ccccc3)c(-c3ccc(=O)n(C(C)C)n3)c2c1Br` [Example 135, 4-bromo-5-methoxy-3-(3-oxo-2-isopropyl-2,3-dihydropyridazin-6-yl)-2-phenylpyrazolo[1,5-a]pyridine] registered a melting point of 205 to 206 °C.

Compound `CC(C)n1nc(-c2c(-c3ccccc3)nn3ccc(C#CC(C)(C)O)cc23)ccc1=O` [Example 136, 5-(3-hydroxy-3-methyl-1-butynyl)-3-(3-oxo-2-isopropyl-2,3-dihydropyridazin-6-yl)-2-phenylpyrazolo[1,5-a]pyridine] returned a melting point of 171 to 172 °C.

Compound `CC(C)n1nc(-c2c(-c3ccccc3)nn3ccc(OCC(=O)NCCc4ccccn4)cc23)ccc1=O` [Example 60, 2-{[3-(3-oxo-2-isopropyl-2,3-dihydropyridazin-6-yl)-2-phenylpyrazolo[1,5-a)pyridin-5-yl]oxy}-N-[2-(2-pyridinyl)-ethyl]acetamide] had a melting point of 188 to 190 °C.

`COc1ccn2nc(-c3ccccc3)c(-c3ccc(=O)n(C)n3)c2c1` [Example 115, 5-Methoxy-3-(3-oxo-2-methyl-2,3-dihydropyridazin-6-yl)-2-phenylpyrazolo[1,5-a]pyridine] gave a melting point of 183 to 184 °C.

`CC(C)n1nc(-c2c(-c3ccccc3)nn3ccc(OCC(=O)NC4CC4)cc23)ccc1=O` [Example 61, N-Cyclopropyl-2-{[3-(3-oxo-2-isopropyl-2,3-dihydropyridazin-6-yl)-2-phenylpyrazolo[1,5-a]pyridin-5-yl]oxy}acetamide] returned a melting point of 199 to 200 °C.

Compound `CC(=O)Nc1cccc(Oc2ccn3nc(-c4ccccc4)c(-c4ccc(=O)n(C(C)C)n4)c3c2)c1` [Example 36, N-(3-{[3-(3-oxo-2-isopropyl-2,3-dihydropyridazin-6-yl)-2-phenylpyrazolo[1,5-a]pyridin-5-yl]oxy}phenyl)acetamide] gave a melting point of 177.5 to 178.5 °C.

`COC1CCN(c2ccn3nc(-c4ccccc4)c(-c4ccc(=O)n(C(C)C)n4)c3c2)CC1` [Example 106, 5-(4-methoxy-1-piperidinyl)-3-(3-oxo-2-isopropyl-2,3-dihydropyridazin-6-yl)-2-phenylpyrazolo[1,5-a]pyridine]: the melting point lay in the range of 177 to 178 °C.

In turn, `COc1ccn2nc(-c3ccccc3)c(-c3ccc(=O)n(C4CCCN(C)C4)n3)c2c1` (stereo not drawn) [Example 123, 5-Methoxy-3-[3-oxo-2-(1-methylpiperidin-3-yl)-2,3-dihydropyridazin-6-yl]-2-phenylpyrazolo[1,5-a]pyridine] showed a melting point of 179 to 180 °C.

As to `CC(C)n1nc(-c2c(-c3ccccc3)nn3ccc(OCc4ccncc4)cc23)ccc1=O` [Example 19, 5-(4-Pyridinylmethoxy)-3-(3-oxo-2-isopropyl-2,3-dihydropyridazin-6-yl)-2-phenylpyrazolo[1,5-a]pyridine], the melting point fell in the range of 218 to 219.5 °C.

`CC(C)Oc1ccn2nc(-c3ccccc3)c(-c3ccc(=O)n(C(C)C)n3)c2c1` [Example 10, 5-Isopropoxy-3-(3-oxo-2-isopropyl-2,3-dihydropyridazin-6-yl)-2-phenylpyrazolo[1,5-a]pyridine] registered a melting point of 162 to 163 °C.

As to `Nc1cccc2c(-c3ccc(=O)[nH]n3)c(-c3ccccc3)nn12` [Example 133, 7-amino-3-(3-oxo-2,3-dihydropyridazin-6-yl)-2-phenylpyrazolo[1,5-a]pyridine], the melting point was 157 to 159 °C.

Compound `CC(C)n1nc(-c2c(-c3ccccc3)nn3ccc(OCC(=O)Nc4ccccc4)cc23)ccc1=O` [Example 44, 2-{[3-(3-Oxo-2-isopropyl-2,3-dihydropyridazin-6-yl)-2-phenylpyrazolo[1,5-a]pyridin-5-yl]oxy}-N-phenylacetamide] displayed a melting point of 208 to 209 °C.

The compound `CC(C)n1nc(-c2c(-c3ccccc3)nn3ccc(N4CCN(c5ccccn5)CC4)cc23)ccc1=O` [Example 102, 5-[4-(2-Pyridinyl)-1-piperazinyl]-3-(3-oxo-2-isopropyl-2,3-dihydropyridazin-6-yl)-2-phenylpyrazolo[1,5-a]pyridine] gave a melting point of 221 to 222 °C.

Turning to `CC(C)n1nc(-c2c(-c3ccccc3)nn3ccc(OCCN4CC4)cc23)ccc1=O`, the melting point was 159 to 160 °C.

For `CC(C)n1nc(-c2c(-c3ccccc3)nn3ccc(OCC(=O)OCc4ccccc4)cc23)ccc1=O` [Example 32, Benzyl {[3-(3-oxo-2-isopropyl-2,3-dihydropyridazin-6-yl)-2-phenylpyrazolo[1,5-a]pyridin-5-yl]oxy}acetate], the melting point fell in the range of 174 to 174.5 °C.

The compound `COc1ccn2nc(-c3ccccc3)c(-c3ccc(=O)n([C@H]4CCOC4)n3)c2c1` [Example 120, 5-Methoxy-3-[3-oxo-2-((3S)-tetrahydrofuran-3-yl)-2,3-dihydropyridazin-6-yl]-2-phenylpyrazolo[1,5-a]pyridine] returned a melting point of 194 to 195 °C.

As to `CC(C)n1nc(-c2c(-c3ccccc3)nn3ccc(OCCN4[C@H](C)COC[C@@H]4C)cc23)ccc1=O` [Example 18, 5-[2-{(3R,5S)-3,5-Dimethyl-4-morpholinyl}ethoxy]-3-(3-oxo-2-isopropyl-2,3-dihydropyridazin-6-yl)-2-phenylpyrazolo[1,5-a]pyridine], the melting point was 145 to 146 °C.

Compound `CC(C)n1nc(-c2c(-c3ccccc3)nn3ccc(C(=O)NCc4cccnc4)cc23)ccc1=O` [Example 87, N-(3-Pyridinylmethyl)-3-(3-oxo-2-isopropyl-2,3-dihydropyridazin-6-yl)-2-phenylpyrazolo[1,5-a]pyridine-5-carboxamide] yielded a melting point of 192 to 193 °C.

`CC(C)n1nc(-c2c(-c3ccccc3)nn3ccc(N4CCN(C(=O)c5ccccc5)CC4)cc23)ccc1=O` [Example 112, 5-(4-Benzoyl-1-piperazinyl)-3-(3-oxo-2-isopropyl-2,3-dihydropyridazin-6-yl)-2-phenylpyrazolo[1,5-a]pyridine] came in with a melting point of 124 to 126 °C.

In turn, `CCn1nc(-c2c(-c3ccccc3)nn3ccc(OC)cc23)ccc1=O` [Example 116, 5-Methoxy-3-(3-oxo-2-ethyl-2,3-dihydropyridazin-6-yl)-2-phenylpyrazolo[1,5-a]pyridine] returned a melting point of 148 to 149 °C.
